This note sets out measurements from patent US12441703B2, “Carboxamides as modulators of sodium channels” (VERTEX PHARMACEUTICALS INCORPORATED, priority 2019, dated 2025).

SMILES strings stand for the structures.

One test deals with human NaV 1.8 (Homo sapiens, UniProt Q9Y5Y9). In words: E-VIPR assay for detecting and measuring NaV inhibition properties. It is filed as cell-based. As to conditions: E-VIPR assay conducted in the presence of human serum; HEK cells expressing truncated human NaV 1.8. A digest of the protocol: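 Membrane-potential (coumarin/oxonol) readout after 10 s of 10 Hz biphasic electrical stimulation on E-VIPR. Compounds: 11-point 3-fold dilutions, […], 0.625% DMSO, 30 min at room temperature, human serum optional. Cells: HEK expressing truncated human NaV1.8 co-transduced with KIR2.1.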
Chain of human NaV 1.8 (Q9Y5Y9 whole entry, looked up, the tested form may be a part): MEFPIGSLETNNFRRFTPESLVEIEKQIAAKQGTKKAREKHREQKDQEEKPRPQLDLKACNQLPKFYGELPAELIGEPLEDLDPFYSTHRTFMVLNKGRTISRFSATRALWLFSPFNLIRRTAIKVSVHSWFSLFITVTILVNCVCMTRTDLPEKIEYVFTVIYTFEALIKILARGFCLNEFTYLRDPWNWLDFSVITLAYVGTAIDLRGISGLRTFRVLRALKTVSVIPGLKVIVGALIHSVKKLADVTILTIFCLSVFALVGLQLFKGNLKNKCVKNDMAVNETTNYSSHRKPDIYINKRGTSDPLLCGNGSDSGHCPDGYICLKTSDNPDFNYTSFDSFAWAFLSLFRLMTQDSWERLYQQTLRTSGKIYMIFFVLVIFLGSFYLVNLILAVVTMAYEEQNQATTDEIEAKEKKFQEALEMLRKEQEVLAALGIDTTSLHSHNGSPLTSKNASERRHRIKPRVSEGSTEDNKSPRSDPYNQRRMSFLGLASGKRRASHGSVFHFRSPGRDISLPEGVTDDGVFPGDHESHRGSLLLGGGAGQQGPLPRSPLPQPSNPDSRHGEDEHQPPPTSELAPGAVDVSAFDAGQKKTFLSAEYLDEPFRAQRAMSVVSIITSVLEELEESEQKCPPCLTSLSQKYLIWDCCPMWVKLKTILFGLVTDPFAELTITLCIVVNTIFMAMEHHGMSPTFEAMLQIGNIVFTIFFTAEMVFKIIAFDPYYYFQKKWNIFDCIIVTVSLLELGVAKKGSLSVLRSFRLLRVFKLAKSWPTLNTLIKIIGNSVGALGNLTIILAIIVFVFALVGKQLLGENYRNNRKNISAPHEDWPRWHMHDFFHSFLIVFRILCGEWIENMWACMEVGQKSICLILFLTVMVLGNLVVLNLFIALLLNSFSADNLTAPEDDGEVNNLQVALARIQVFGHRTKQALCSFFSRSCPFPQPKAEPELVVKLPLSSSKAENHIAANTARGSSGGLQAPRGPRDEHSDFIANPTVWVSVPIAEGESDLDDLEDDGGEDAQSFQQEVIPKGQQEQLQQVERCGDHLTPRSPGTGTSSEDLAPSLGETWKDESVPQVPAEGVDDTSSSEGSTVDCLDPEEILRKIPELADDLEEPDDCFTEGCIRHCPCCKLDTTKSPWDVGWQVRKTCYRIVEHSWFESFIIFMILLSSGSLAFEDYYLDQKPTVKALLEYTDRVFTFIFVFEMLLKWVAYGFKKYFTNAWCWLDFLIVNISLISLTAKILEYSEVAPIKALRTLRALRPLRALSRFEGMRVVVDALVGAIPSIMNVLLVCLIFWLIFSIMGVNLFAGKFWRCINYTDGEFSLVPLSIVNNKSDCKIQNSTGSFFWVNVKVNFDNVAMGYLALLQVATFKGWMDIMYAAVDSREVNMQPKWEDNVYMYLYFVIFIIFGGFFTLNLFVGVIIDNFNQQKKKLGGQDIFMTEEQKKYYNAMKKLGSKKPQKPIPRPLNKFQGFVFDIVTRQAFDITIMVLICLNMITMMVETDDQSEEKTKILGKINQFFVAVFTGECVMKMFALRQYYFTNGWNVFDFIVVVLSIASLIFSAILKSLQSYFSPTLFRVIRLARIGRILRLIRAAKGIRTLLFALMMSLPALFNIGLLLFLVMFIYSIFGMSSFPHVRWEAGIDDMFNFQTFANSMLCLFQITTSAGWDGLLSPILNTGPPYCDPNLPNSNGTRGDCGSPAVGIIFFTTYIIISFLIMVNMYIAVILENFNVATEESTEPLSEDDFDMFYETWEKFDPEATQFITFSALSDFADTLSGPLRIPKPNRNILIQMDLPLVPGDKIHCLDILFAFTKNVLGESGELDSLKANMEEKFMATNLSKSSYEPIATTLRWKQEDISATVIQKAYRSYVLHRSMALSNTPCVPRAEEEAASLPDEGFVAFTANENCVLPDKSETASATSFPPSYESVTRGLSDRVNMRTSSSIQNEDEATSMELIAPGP
As a reminder, the IC50 is the concentration that gives 50% inhibition. With `Cc1c(Oc2ccc(C(F)(F)F)c(C)c2C(=O)Nc2ccc(C(N)=O)nc2)ccc(OC(F)(F)F)c1F` [Compound 289, 5-[[6-[3-Fluoro-2-Methyl-4-(Trifluoromethoxy)Phenoxy]-2-Methyl-3-(Trifluoromethyl)Benzoyl]Amino]Pyridine-2-Carboxamide], the half-maximal inhibitory concentration (IC50) was 39 nM.

The same test, now with this note: E-VIPR assay conducted in the presence of human serum; HEK cells expressing truncated human NaV 1.8; read-out: IC50.
With `COc1cc(OC(F)(F)F)ccc1Oc1ccc(Cl)c(F)c1C(=O)Nc1cc(C(N)=O)[n+]([O-])cc1C` [Compound 268, 4-[[3-chloro-2-fluoro-6-[2-methoxy-4-(trifluoromethoxy)phenoxy]benzoyl]amino]-5-methyl-1-oxido-pyridin-1-ium-2-carboxamide], the IC50 amounted to 28 nM. On the same count and under the same terms, the same measure for `COc1cc(OC(F)(F)F)ccc1Oc1ccc(C(F)(F)F)c(C#N)c1C(=O)Nc1ccnc(C(N)=O)c1` [Compound 269, 4-[[2-cyano-6-[2-methoxy-4-(trifluoromethoxy)phenoxy]-3-(trifluoromethyl)benzoyl]amino]pyridine-2-carboxamide]: 37 nM; for `COc1cc(OC(F)(F)F)ccc1Oc1cnc(C(F)(F)F)c(C)c1C(=O)Nc1cnc(C(N)=O)nc1` [Compound 270, 5-[[5-[2-methoxy-4-(trifluoromethoxy)phenoxy]-3-methyl-2-(trifluoromethyl)pyridine-4-carbonyl]amino]pyrimidine-2-carboxamide]: 33 nM; for `COc1cc(OC(F)(F)F)ccc1Oc1cnc(C(F)(F)F)c(C)c1C(=O)Nc1cc(C(N)=O)ncc1C` [Compound 271, N-(2-carbamoyl-5-methyl-4-pyridyl)-5-[2-methoxy-4-(trifluoromethoxy)phenoxy]-3-methyl-2-(trifluoromethyl)pyridine-4-carboxamide]: 24 nM. With `COc1cc(OC(F)(F)F)ccc1Oc1cc(C(F)(F)F)nc(OC)c1C(=O)Nc1cc(C(N)=O)ncc1C` [Compound 272, N-(2-carbamoyl-5-methyl-4-pyridyl)-2-methoxy-4-[2-methoxy-4-(trifluoromethoxy)phenoxy]-6-(trifluoromethyl)pyridine-3-carboxamide], the IC50 was 89 nM. On the same count and under the same terms, in the case of `CNC(=O)c1cc(NC(=O)c2c(Oc3ccc(OC(F)(F)F)cc3OC)cnc(C(F)(F)F)c2OC)ccn1` [Compound 273, 3-methoxy-5-[2-methoxy-4-(trifluoromethoxy)phenoxy]-N-[2-(methylcarbamoyl)-4-pyridyl]-2-(trifluoromethyl)pyridine-4-carboxamide] it was 59 nM; in that of `CCc1nc(C(=O)Nc2ccnc(C(N)=O)c2)c(Oc2ccc(OC(F)(F)F)cc2OC)cc1C(F)(F)F` [Compound 274, N-(2-carbamoyl-4-pyridyl)-6-ethyl-3-[2-methoxy-4-(trifluoromethoxy)phenoxy]-5-(trifluoromethyl)pyridine-2-carboxamide], 39.3 nM; in that of `COc1cc(OC(F)(F)F)ccc1Oc1cc(C(F)(F)F)c(OC)nc1C(=O)Nc1ccnc(C(N)=O)c1` [Compound 275, N-(2-Carbamoyl-4-Pyridyl)-6-Methoxy-3-[2-Methoxy-4-(Trifluoromethoxy)Phenoxy]-5-(Trifluoromethyl)Pyridine-2-Carboxamide], 170 nM. In the case of `COc1cc(OC(F)(F)F)ccc1Oc1cc(C(F)(F)F)c(OC)cc1C(=O)Nc1ccnc(C(N)=O)c1` [Compound 276, 4-[[5-Methoxy-2-[2-Methoxy-4-(Trifluoromethoxy)Phenoxy]-4-(Trifluoromethyl)Benzoyl]Amino]Pyridine-2-Carboxamide], the concentration for half-maximal inhibition (IC50) is 440 nM.

Turning to `COc1cc(OC(F)(F)F)ccc1Oc1cc(C(F)(F)F)cc(OC)c1C(=O)Nc1ccnc(C(N)=O)c1` [Compound 277, 4-[[2-Methoxy-6-[2-Methoxy-4-(Trifluoromethoxy)Phenoxy]-4-(Trifluoromethyl)Benzoyl]Amino]Pyridine-2-Carboxamide], the half-inhibitory concentration (IC50) was found to be 170 nM. Regarding `COc1cc(OC(F)(F)F)ccc1Oc1cc(C(F)(F)F)c(C)c(F)c1C(=O)Nc1ccnc(C(N)=O)c1` [Compound 278, 4-[[2-Fluoro-6-[2-Methoxy-4-(Trifluoromethoxy)Phenoxy]-3-Methyl-4-(Trifluoromethyl)Benzoyl]Amino]Pyridine-2-Carboxamide], the IC50 worked out at 3.6 nM. `COc1cc(OC(F)(F)F)ccc1Oc1cc(C(F)(F)F)c(F)cc1C(=O)Nc1cc[n+]([O-])c(C(N)=O)c1` [Compound 279, 4-[[5-Fluoro-2-[2-Methoxy-4-(Trifluoromethoxy)Phenoxy]-4-(Trifluoromethyl)Benzoyl]Amino]-1-Oxido-Pyridin-1-Ium-2-Carboxamide]: the half-inhibitory concentration (IC50) is 19 nM. On to `COc1cc(OC(F)(F)F)ccc1Oc1ccc(OC(F)(F)F)c(F)c1C(=O)Nc1ccnc(C(N)=O)c1` [Compound 280, 4-[[2-Fluoro-6-[2-Methoxy-4-(Trifluoromethoxy)Phenoxy]-3-(Trifluoromethoxy)Benzoyl]Amino]Pyridine-2-Carboxamide], for which the IC50 was determined as 4 nM. Still for that read-out and setting: in the case of `COc1cc(OC(F)(F)F)ccc1Oc1ccc(C(F)(F)F)c(C2CC2)c1C(=O)Nc1ccnc(C(N)=O)c1` [Compound 281, 4-[[2-Cyclopropyl-6-[2-Methoxy-4-(Trifluoromethoxy)Phenoxy]-3-(Trifluoromethyl)Benzoyl]Amino]Pyridine-2-Carboxamide] it was 130 nM. In the case of `COc1cc(OC(F)(F)F)ccc1Oc1cc(C2CC2)c(C(F)(F)F)nc1C(=O)Nc1ccnc(C(N)=O)c1` [Compound 282, N-(2-Carbamoyl-4-Pyridyl)-5-Cyclopropyl-3-[2-Methoxy-4-(Trifluoromethoxy)Phenoxy]-6-(Trifluoromethyl)Pyridine-2-Carboxamide], the IC50 amounted to 57 nM. On to `COc1cc(OC(F)(F)F)ccc1Oc1cc(OC)c(C(F)(F)F)c(C)c1C(=O)Nc1ccnc(C(N)=O)c1` [Compound 283, 4-[[4-Methoxy-6-[2-Methoxy-4-(Trifluoromethoxy)Phenoxy]-2-Methyl-3-(Trifluoromethyl)Benzoyl]Amino]Pyridine-2-Carboxamide], for which the concentration for half-maximal inhibition (IC50) amounted to 4.2 nM. As for `COc1cc(OC(F)(F)F)ccc1Oc1cc(C(F)(F)F)c(OC)c(F)c1C(=O)Nc1ccnc(C(N)=O)c1` [Compound 284, 4-[[2-Fluoro-3-Methoxy-6-[2-Methoxy-4-(Trifluoromethoxy)Phenoxy]-4-(Trifluoromethyl)Benzoyl]Amino]Pyridine-2-Carboxamide], the 50% inhibitory concentration (IC50) worked out at 4 nM. For `Cc1cnc(C(N)=O)cc1NC(=O)c1c(Oc2ccc(OC(F)(F)F)cc2C)ccc(C(F)(F)F)c1F` [Compound 285, 4-[[2-Fluoro-6-[2-Methyl-4-(Trifluoromethoxy)Phenoxy]-3-(Trifluoromethyl)Benzoyl]Amino]-5-Methyl-Pyridine-2-Carboxamide], the IC50 was found to be 26 nM. The same measure, in the same setting: the same measure for `Cc1cc(OC(F)(F)F)ccc1Oc1ccc(Cl)c(F)c1C(=O)Nc1ccnc(C(N)=O)c1` [Compound 286, 4-[[3-Chloro-2-Fluoro-6-[2-Methyl-4-(Trifluoromethoxy)Phenoxy]Benzoyl]Amino]Pyridine-2-Carboxamide]: 14 nM; for `Cc1c(C2CC2)ccc(Oc2ccc(OC(F)(F)F)cc2Cl)c1C(=O)Nc1ccc(C(N)=O)nc1` [Compound 287, 5-[[6-[2-Chloro-4-(Trifluoromethoxy)Phenoxy]-3-Cyclopropyl-2-Methyl-Benzoyl]Amino]Pyridine-2-Carboxamide]: 590 nM; for `Cc1cnc(C(N)=O)cc1NC(=O)c1c(Oc2ccc(OC(F)(F)F)c(F)c2C)ccc(C(F)(F)F)c1C` [Compound 288, 4-[[6-[3-Fluoro-2-Methyl-4-(Trifluoromethoxy)Phenoxy]-2-Methyl-3-(Trifluoromethyl)Benzoyl]Amino]-5-Methyl-Pyridine-2-Carboxamide]: 20.3 nM. `Cc1c(Oc2ccc(C(F)(F)F)c(C)c2C(=O)Nc2ccnc(C(N)=O)c2)ccc(OC(F)(F)F)c1F` [Compound 290, 4-[[6-[3-Fluoro-2-Methyl-4-(Trifluoromethoxy)Phenoxy]-2-Methyl-3-(Trifluoromethyl)Benzoyl]Amino]Pyridine-2-Carboxamide]: the IC50 came out at 9.9 nM. Take `Cc1cnc(C(N)=O)cc1NC(=O)c1c(Oc2ccc(OC(F)(F)F)c(F)c2C)ccc(C(F)(F)F)c1F` [Compound 291, 4-[[2-Fluoro-6-[3-Fluoro-2-Methyl-4-(Trifluoromethoxy)Phenoxy]-3-(Trifluoromethyl)Benzoyl]Amino]-5-Methyl-Pyridine-2-Carboxamide]: the IC50 was determined as 12.8 nM. As for `Cc1c(Oc2ccc(C(F)(F)F)c(F)c2C(=O)Nc2ccc(C(N)=O)nc2)ccc(OC(F)(F)F)c1F` [Compound 292, 5-[[2-Fluoro-6-[3-Fluoro-2-Methyl-4-(Trifluoromethoxy)Phenoxy]-3-(Trifluoromethyl)Benzoyl]Amino]Pyridine-2-Carboxamide], the concentration for half-maximal inhibition (IC50) came out at 54.5 nM. Same read-out and setting: the same measure for `Cc1c(Oc2ccc(C(F)(F)F)c(F)c2C(=O)Nc2ccnc(C(N)=O)c2)ccc(OC(F)(F)F)c1F` [Compound 293, 4-[[2-Fluoro-6-[3-Fluoro-2-Methyl-4-(Trifluoromethoxy)Phenoxy]-3-(Trifluoromethyl)Benzoyl]Amino]Pyridine-2-Carboxamide]: 3.9 nM. For the molecule `Cc1c(Oc2ccc(OC(F)(F)F)c(F)c2C(=O)Nc2ccnc(C(N)=O)c2)ccc(OC(F)(F)F)c1F` [Compound 294, 4-[[2-Fluoro-6-[3-Fluoro-2-Methyl-4-(Trifluoromethoxy)Phenoxy]-3-(Trifluoromethoxy)Benzoyl]Amino]Pyridine-2-Carboxamide], the half-maximal inhibitory concentration (IC50) is 6.8 nM. For the molecule `Cc1c(Oc2ccc(Cl)c(F)c2C(=O)Nc2ccnc(C(N)=O)c2)ccc(OC(F)(F)F)c1F` [Compound 295, 4-[[3-Chloro-2-Fluoro-6-[3-Fluoro-2-Methyl-4-(Trifluoromethoxy)Phenoxy]Benzoyl]Amino]Pyridine-2-Carboxamide], the IC50 amounted to 6.5 nM.

In the case of `Cc1cnc(C(N)=O)cc1NC(=O)c1c(Oc2ccc(OC(F)(F)F)c(F)c2Cl)ccc(C(F)(F)F)c1F` [Compound 296, 4-[[6-[2-Chloro-3-Fluoro-4-(Trifluoromethoxy)Phenoxy]-2-Fluoro-3-(Trifluoromethyl)Benzoyl]Amino]-5-Methyl-Pyridine-2-Carboxamide], the concentration for half-maximal inhibition (IC50) is 24.6 nM.
